For one series, the system named is HT29 cells. Put plainly: Migration (scratch) assay. The series is classed as cell-based, human. The conditions noted are these: control T 155558.2, control T0 544366.45. As to the method:
The scratch test was performed to verify that the tested compound 3g could inhibit the formation of metastases by the HT29 cell line. The seeded HT29 cells were incubated until they formed a monolayer over the entire surface of the well. Then, a scratch test was performed by making a scratch in the monolayer and measuring its width—that is, To, amounting to 544,366.45 μm^2. Freshly prepared compounds were added to the HT29 cells at concentrations of 10, 25, 50, and 100 μM. Breeding plates were incubated for 24 h. The next day, scratch width was measured again using the ImageJ open-source platform. […] The lowest cellular overgrowth of HT29 culture occurred at the concentration of 100 μM for the compound. Compound 3g inhibited the migration of HT29 cells more strongly than the reference drugs, showing that it has the potential to inhibit metastasis. The width of the scratch after 24 h when no compound was applied to the cells was used as a control (T = 155,558.2 μm^2).
(§1) All cell lines were grown in 5% CO2 at 95% humidity and 37 °C, with both morphology and confluence assessed twice per week. When the confluence was greater than 70%, adherent cell lines were detached from the bottle surface with a TrypLE solution and then used in assays or reduced. The cells were collected into centrifuge tubes and centrifuged at 1000× g for 5 min at room temperature. The supernatant was removed to dry. The cell pellets were then resuspended in an appropriate medium. The cells were counted using a Bürker chamber and resuspended in 96-well plates to a cell density of 10,000 cells per well for MTT assay. For the rhodamine accumulation test and the detection of apoptosis assay, cells were seeded at a density of 30,000 per well. In the migration assay, cells were seeded at a density of 20,000 per well, and monolayer formation was awaited.
After seeding, HT29 cells were incubated until they formed a monolayer over the entire surface of the well. A scratch was made on the surface overgrown with cells, and then photomicrographs of the scratch were taken using the EVOS FL microscope. The freshly prepared compound 3g and the reference drugs were added at concentrations of 10, 25, 50, and 100 µM. Then, they were incubated for 24 h, and micrographs were performed at that time using the EVOS FL microscope. The scratch width was measured using the ImageJ open-source platform. The measurement of scratch width was also performed after 24 h without adding compounds.

The test system of the next series is HT29. Set-up: method as in PMID 32759841. The conditions noted are these: estimated based on data taken from reference; cited from earlier work.
Series [1] deals with HT29 primary colon adenocarcinoma cells. Put plainly: Detection of apoptosis (Annexin V FITC / propidium iodide). Set-up: unit not given here. The conditions noted are these: 24 h. The format is cell-based, human. Here is the method:
as §1
HT29 primary colon adenocarcinoma cells were grown in 96-well plates for 24 h. The 5 selected derivatives were added at concentrations of 1, 2, 5, and 10 µM, and then incubated for 24 h. The mixture of Annexin V conjugated with fluorescein and propidium iodide in PBS with Mg^2+ and Ca^2+ ions (Thermo Fisher Scientific, Waltham, MA, USA) was then applied. The incubation lasted 20 min at 37 °C. Pictures were taken using a fluorescence microscope. Thirteen images were taken from each well using an EVOS FL fluorescence microscope, with three replications for each compound. The open ImageJ space was used to analyze the number of cells. The Thermo Fisher Dead Cell Apoptosis Kit with Annexin V FITC and Propidium Iodide (PI) detects phosphatidylserine extrusion in apoptotic cells using Annexin V conjugated with a green fluorescent FITC dye and dead cells stained by PI with red fluorescence.

For the next series, the system named is Jurkat T-cell. Further details: method as in PMID 32759841. The conditions noted are these: cited from earlier work.

Molecules are shown by their SMILES.

As to `N.N.[Cl][Pt][Cl]` [Cisplatin, reference compound], the “scratch width after 24 h, mean” value in the series on HT29 cells (10 μM) is given as 171562.8 μm^2; with HT29 cells (25 μM), 209621 μm^2; in the series with HT29 cells (50 μM), 216006.4 μm^2; with HT29 cells (100 μM) it was 253653.8 μm^2. The CC50 in the series on HT29 is 16.9 ± 1.94 µM. For the same compound, the apoptosis mean in series [1] (1 μM) stood at 4.45; in series [1] (2 μM) it was 7.18; in series [1] (5 μM), 6.28; in series [1] (10 μM) it was 2.34. The late apoptosis mean in series [1] (1 μM) stood at 26.25; in series [1] (2 μM) it was 24.44; in series [1] (5 μM) it was 29.59; in series [1] (10 μM) it was 16.55. For the same compound, the necrosis mean in series [1] (1 μM) turned out to be 7.81; in series [1] (2 μM), 4.42; in series [1] (5 μM) it was 3.95; in series [1] (10 μM), 32.35. Moreover, the “percent live (viable) cells” value in series [1] (1 μM) turned out to be 50.30; in series [1] (2 μM) it was 52.47; in series [1] (5 μM), 59.69; in series [1] (10 μM), 48.76.

Take `Cc1nc(NCCCN(C)C)c2nc(-c3c(C)noc3N)oc2n1` [SCM9]: the “expression of apoptosis-modulating proteins” value with Jurkat T-cell (Jurkat T-cell model) is “did not alter”. Further, the “expression of MAPK pathway components JNK, p38α, and p38β” value with Jurkat T-cell was “increased”. Further, the CC50 in the series with HT29 was 39.1 ± 7.79 µM.

These data come from publication PMC9569971, “New Oxazolo[5,4-d]pyrimidines as Potential Anticancer Agents: Their Design, Synthesis, and In Vitro Biological Activity Research” (International Journal of Molecular Sciences, 2022).
